In patent US20230062119A1, “USE OF BIOMARKERS IN IDENTIFYING PATIENTS THAT WILL BE RESPONSIVE TO TREATMENT WITH A PRMT5 INHIBITOR” (Merck Sharp & Dohme LLC, priority 2019, published 2023):

Each molecule was assayed against T1, Full-length (FL)-PRMT5-MEP50 enzyme complex (Homo sapiens, UniProt O14744) (assay: PRMT5-MEP50 Enzyme Methylation Assay). Settings: one EC50: 4 parameters single site sigmoidal model; EC50 1: first value of 7 parameters biphasic model; 1.0 nM PRMT5-MEP50, 75 nM biotinylated peptide, 15 μM SAM; read-out: Enzyme Methylation Assay (EC50 or EC50 1).
T1 construct: Full-length (FL)-PRMT5-MEP50 enzyme complex (recombinant proteins from baculovirus-transfected Sf21 cells: FL-PRMT5; MW=73837 kDa and FL-MEP50; MW=38614); made in house; host or cells: baculovirus-transfected Sf21 insect cells
T1 sequence (O14744 whole entry): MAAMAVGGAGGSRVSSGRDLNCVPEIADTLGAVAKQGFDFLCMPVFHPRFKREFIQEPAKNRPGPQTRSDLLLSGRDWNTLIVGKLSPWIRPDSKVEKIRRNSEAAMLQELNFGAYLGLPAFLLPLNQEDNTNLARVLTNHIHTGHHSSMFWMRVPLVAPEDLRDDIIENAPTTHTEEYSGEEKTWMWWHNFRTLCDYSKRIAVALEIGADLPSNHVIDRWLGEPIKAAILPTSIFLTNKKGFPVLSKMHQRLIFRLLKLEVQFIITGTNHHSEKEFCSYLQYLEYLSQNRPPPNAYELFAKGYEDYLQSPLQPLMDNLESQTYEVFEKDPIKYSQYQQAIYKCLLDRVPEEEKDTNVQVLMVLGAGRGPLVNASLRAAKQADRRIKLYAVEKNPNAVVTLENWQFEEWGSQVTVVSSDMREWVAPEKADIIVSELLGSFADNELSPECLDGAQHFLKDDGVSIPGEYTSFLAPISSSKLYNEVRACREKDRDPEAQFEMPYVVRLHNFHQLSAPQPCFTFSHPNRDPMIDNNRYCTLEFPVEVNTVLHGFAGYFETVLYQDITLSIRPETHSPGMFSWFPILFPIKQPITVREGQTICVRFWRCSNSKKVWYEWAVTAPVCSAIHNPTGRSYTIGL
T1 sequence (Q9BQA1 whole entry partner): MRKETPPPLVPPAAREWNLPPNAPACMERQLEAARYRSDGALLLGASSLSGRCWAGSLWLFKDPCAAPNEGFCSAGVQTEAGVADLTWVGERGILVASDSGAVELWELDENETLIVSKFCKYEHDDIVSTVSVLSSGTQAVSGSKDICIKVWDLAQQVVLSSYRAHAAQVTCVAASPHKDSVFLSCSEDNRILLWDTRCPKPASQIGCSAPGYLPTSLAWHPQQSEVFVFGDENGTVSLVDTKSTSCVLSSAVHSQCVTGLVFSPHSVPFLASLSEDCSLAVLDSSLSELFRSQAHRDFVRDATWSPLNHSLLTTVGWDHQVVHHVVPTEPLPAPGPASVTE
Type: biochemical
Method in brief: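 Compound was pre-incubated 60 min at 37°C with 1.0 nM enzyme and 15 μM SAM (final) in 50 mM Bicine pH 8.0, then 75 nM biotinylated H4R3(Me1) peptide was added and reacted 150 min; twenty-point 1:2 titration from 100000 nM, 1% DMSO. Formic acid quench; SAMDI mass spectrometry measured Me1-to-Me2 conversion, EC50 by 4- or 7-parameter regression.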
`Cc1cn([C@@H]2O[C@@H]3[C@@H](Oc4ccc5cc(Br)c(N)nc5c4)CC[C@]3(O)[C@H]2O)c2ncnc(N)c12` [Example 60, (2R,3R,3aS,6S,6aR)-6-((2-amino-3-bromoquinolin-7-yl)oxy)-2-(4-amino-5-methyl-7H-pyrrolo[2,3-d]pyrimidin-7-yl)hexahydro-3aH-cyclopenta[b]furan-3,3a-diol] gave an EC50 of 400 pM. In the case of `Cc1nc(N)c2ccn([C@@H]3O[C@@H]4[C@H](Cc5ccc6cc(Br)c(N)nc6c5)CC[C@]4(O)[C@H]3O)c2n1` [Example 61, (2R,3R,3aS,6S,6aR)-2-(4-amino-2-methyl-7H-pyrrolo[2,3-d]pyrimidin-7-yl)-6-((2-amino-3-bromoquinolin-7-yl)methyl)hexahydro-3aH-cyclopenta[b]furan-3,3a-diol], the EC50 is reported as 500 pM. Molecule `Cc1cn([C@@H]2O[C@@H]3[C@H](Cc4ccc5cc(F)c(N)nc5c4)CC[C@]3(O)[C@H]2O)c2ncnc(N)c12` [Example 62, (2R,3R,3aS,6S,6aR)-6-((2-amino-3-fluoroquinolin-7-yl)methyl)-2-(4-amino-5-methyl-7H-pyrrolo[2,3-d]pyrimidin-7-yl)hexahydro-3aH-cyclopenta[b]furan-3,3a-diol 2,2,2-trifluoroacetate] has an EC50 of 500 pM. `Cc1nc(N)c2ccn([C@@H]3O[C@@H]4[C@@H](Oc5ccc6cc(Br)c(N)nc6c5)CC[C@]4(O)[C@H]3O)c2n1` [Example 63, (2R,3R,3aS,6S,6aR)-2-(4-amino-2-methyl-7H-pyrrolo[2,3-d]pyrimidin-7-yl)-6-((2-amino-3-bromoquinolin-7-yl)oxy)hexahydro-3aH-cyclopenta[b]furan-3,3a-diol] gave an EC50 of 400 pM. Molecule `Cc1cn([C@@H]2O[C@@H]3[C@H](Cc4ccc5cc(Cl)c(N)nc5c4)CC[C@]3(O)[C@H]2O)c2ncnc(N)c12` [Example 66, (2R,3R,3aS,6S,6aR)-6-((2-amino-3-chloroquinolin-7-yl)methyl)-2-(4-amino-5-methyl-7H-pyrrolo[2,3-d]pyrimidin-7-yl)hexahydro-3aH-cyclopenta[b]furan-3,3a-diol] has an EC50 of 300 pM. In the case of `Nc1nc2cc(C[C@@H]3CC[C@@]4(O)[C@@H]3O[C@@H](n3ccc5c(N)ncnc53)[C@@H]4O)ccc2cc1Cl` [Example 67, (2R,3R,3aS,6S,6aR)-6-((2-amino-3-chloroquinolin-7-yl)methyl)-2-(4-amino-7H-pyrrolo[2,3-d]pyrimidin-7-yl)hexahydro-3aH-cyclopenta[b]furan-3,3a-diol], the EC50 is reported as 800 pM. Molecule `Nc1nc2cc(C[C@@H]3CC[C@@]4(O)[C@@H]3O[C@@H](n3cc(F)c5c(N)ncnc53)[C@@H]4O)ccc2cc1Cl` [Example 68, (2R,3R,3aS,6S,6aR)-6-((2-amino-3-chloroquinolin-7-yl)methyl)-2-(4-amino-5-fluoro-7H-pyrrolo[2,3-d]pyrimidin-7-yl)hexahydro-3aH-cyclopenta[b]furan-3,3a-diol] has an EC50 of 500 pM. `Cc1cn([C@@H]2O[C@@H]3[C@H](Cc4ccc5cc(Br)c(N)nc5c4)CC[C@]3(O)[C@H]2O)c2ncnc(N)c12` [Example 70, (2R,3R,3aS,6S,6aR)-6-((2-amino-3-bromoquinolin-7-yl)methyl)-2-(4-amino-5-methyl-7H-pyrrolo[2,3-d]pyrimidin-7-yl)hexahydro-3aH-cyclopenta[b]furan-3,3a-diol 2,2,2-trifluoroacetate] was tested, and the EC50 was 400 pM. With `Nc1nc2cc(O[C@H]3CC[C@@]4(O)[C@@H]3O[C@@H](n3ccc5c(N)ncnc53)[C@@H]4O)ccc2cc1F` [Example 71, (2R,3R,3aS,6S,6aR)-6-((2-amino-3-fluoroquinolin-7-yl)oxy)-2-(4-amino-7H-pyrrolo[2,3-d]pyrimidin-7-yl)hexahydro-3aH-cyclopenta[b]furan-3,3a-diol] the EC50 was 1600 pM. With `Nc1nc2cc(O[C@H]3CC[C@@]4(O)[C@@H]3O[C@@H](n3ccc5c(N)ncnc53)[C@@H]4O)ccc2cc1Cl` [Example 72, (2R,3R,3aS,6S,6aR)-6-((2-amino-3-chloroquinolin-7-yl)oxy)-2-(4-amino-7H-pyrrolo[2,3-d]pyrimidin-7-yl)hexahydro-3aH-cyclopenta[b]furan-3,3a-diol] the EC50 was 900 pM. With `Nc1nc2cc(O[C@H]3CC[C@@]4(O)[C@@H]3O[C@@H](n3cc(F)c5c(N)ncnc53)[C@@H]4O)ccc2cc1F` [Example 73, (2R,3R,3aS,6S,6aR)-6-((2-amino-3-fluoroquinolin-7-yl)oxy)-2-(4-amino-5-fluoro-7H-pyrrolo[2,3-d]pyrimidin-7-yl)hexahydro-3aH-cyclopenta[b]furan-3,3a-diol] the EC50 was 400 pM. Molecule `Nc1nc2cc(O[C@H]3CC[C@@]4(O)[C@@H]3O[C@@H](n3cc(F)c5c(N)ncnc53)[C@@H]4O)ccc2cc1Cl` [Example 74, (2R,3R,3aS,6S,6aR)-6-((2-amino-3-chloroquinolin-7-yl)oxy)-2-(4-amino-5-fluoro-7H-pyrrolo[2,3-d]pyrimidin-7-yl)hexahydro-3aH-cyclopenta[b]furan-3,3a-diol] has an EC50 of 300 pM. `Nc1ncnc2c1ccn2[C@@H]1O[C@@H]2[C@@H](Oc3ccc4cc5c(nc4c3)NCC5)CC[C@]2(O)[C@H]1O` [Example 75, (2R,3R,3aS,6S,6aR)-2-(4-amino-7H-pyrrolo[2,3-d]pyrimidin-7-yl)-6-((2,3-dihydro-1H-pyrrolo[2,3-b]quinolin-7-yl)oxy)hexahydro-3aH-cyclopenta[b]furan-3,3a-diol] was tested, and the EC50 was 700 pM. In the case of `Nc1nc2cc(O[C@H]3CC[C@@]4(O)[C@@H]3O[C@@H](n3ccc5c(CO)ncnc53)[C@@H]4O)ccc2cc1Br` [Example 77, (2R,3R,3aS,6S,6aR)-6-[(2-amino-3-bromoquinolin-7-yl)oxy]-2-[4-(hydroxymethyl)-7H-pyrrolo[2,3-d]pyrimidin-7-yl]hexahydro-3aH-cyclopenta[b]furan-3,3a-diol], the EC50 is reported as 2000 pM. For `CC(C)(O)c1ncnc2c1ccn2[C@@H]1O[C@@H]2[C@@H](Oc3ccc4cc(Br)c(N)nc4c3)CC[C@]2(O)[C@H]1O` [Example 78, (2R,3R,3aS,6S,6aR)-6-[(2-amino-3-bromoquinolin-7-yl)oxy]-2-[4-(2-hydroxypropan-2-yl)-7H-pyrrolo[2,3-d]pyrimidin-7-yl]hexahydro-3aH-cyclopenta[b]furan-3,3a-diol], the EC50 was 13300 pM. With `Cc1nc(C)c2ccn([C@@H]3O[C@@H]4[C@@H](Oc5ccc6cc(Br)c(N)nc6c5)CC[C@]4(O)[C@H]3O)c2n1` [Example 80, (2R,3R,3aS,6S,6aR)-6-((2-amino-3-bromoquinolin-7-yl)oxy)-2-(2,4-dimethyl-7H-pyrrolo[2,3-d]pyrimidin-7-yl)hexahydro-3aH-cyclopenta[b]furan-3,3a-diol 2,2,2-trifluoroacetate] the EC50 was 2900 pM. For `Cc1nc(C)c2ccn([C@@H]3O[C@@H]4[C@H](Cc5ccc6cc(Br)c(N)nc6c5)CC[C@]4(O)[C@H]3O)c2n1` [Example 81, (2R,3R,3aS,6S,6aR)-6-((2-amino-3-bromoquinolin-7-yl)methyl)-2-(2,4-dimethyl-7H-pyrrolo[2,3-d]pyrimidin-7-yl)hexahydro-3aH-cyclopenta[b]furan-3,3a-diol], the EC50 was 700 pM. With `CC(C)c1ncnc2c1ccn2[C@@H]1O[C@@H]2[C@H](Cc3ccc4cc(Br)c(N)nc4c3)CC[C@]2(O)[C@H]1O` [Example 83, (2R,3R,3aS,6S,6aR)-6-((2-amino-3-bromoquinolin-7-yl)methyl)-2-(4-isopropyl-7H-pyrrolo[2,3-d]pyrimidin-7-yl)hexahydro-3aH-cyclopenta[b]furan-3,3a-diol] the EC50 was 1200 pM. For `Cc1ncnc2c1c(F)cn2[C@@H]1O[C@@H]2[C@H](Cc3ccc4cc(Br)c(N)nc4c3)CC[C@]2(O)[C@H]1O` [Example 84, (2R,3R,3aS,6S,6aR)-6-((2-amino-3-bromoquinolin-7-yl)methyl)-2-(5-fluoro-4-methyl-7H-pyrrolo[2,3-d]pyrimidin-7-yl)hexahydro-3aH-cyclopenta[b]furan-3,3a-diol], the EC50 was 600 pM. With `Nc1nc2cc(O[C@H]3CC[C@@]4(O)[C@@H]3O[C@@H](n3ccc5cncnc53)[C@@H]4O)ccc2cc1Br` [Example 85, (2R,3R,3aS,6S,6aR)-6-((2-amino-3-bromoquinolin-7-yl)oxy)-2-(7H-pyrrolo[2,3-d]pyrimidin-7-yl)hexahydro-3aH-cyclopenta[b]furan-3,3a-diol] the EC50 was 1200 pM. `Cc1ncnc2c1ccn2[C@@H]1O[C@@H]2[C@@H](Oc3ccc4cc(F)c(N)nc4c3)CC[C@]2(O)[C@H]1O` [Example 86, (2R,3R,3aS,6S,6aR)-6-((2-amino-3-fluoroquinolin-7-yl)oxy)-2-(4-methyl-7H-pyrrolo[2,3-d]pyrimidin-7-yl)hexahydro-3aH-cyclopenta[b]furan-3,3a-diol] showed an EC50 of 500 pM. In the case of `Nc1nc2cc(C[C@@H]3CC[C@@]4(O)[C@@H]3O[C@@H](n3ccc5c(C6CC6)ncnc53)[C@@H]4O)ccc2cc1Br` [Example 87, (2R,3R,3aS,6S,6aR)-6-((2-amino-3-bromoquinolin-7-yl)methyl)-2-(4-cyclopropyl-7H-pyrrolo[2,3-d]pyrimidin-7-yl)hexahydro-3aH-cyclopenta[b]furan-3,3a-diol], the EC50 is reported as 500 pM. Work on `Cc1ncnc2c1ccn2[C@@H]1O[C@@H]2[C@H](Cc3ccc4cc(C(F)(F)F)c(N)nc4c3)CC[C@]2(O)[C@H]1O` [Example 88, (2R,3R,3aS,6S,6aR)-6-((2-amino-3-(trifluoromethyl)quinolin-7-yl)methyl)-2-(4-methyl-7H-pyrrolo[2,3-d]pyrimidin-7-yl)hexahydro-3aH-cyclopenta[b]furan-3,3a-diol] yielded an EC50 of 200 pM.

Same assay, conditions: second EC50 of 7 parameters biphasic model; 1.0 nM PRMT5-MEP50, 75 nM biotinylated peptide, 15 μM SAM; read-out: Enzyme Methylation Assay (EC50 2)
`Nc1nc2cc(O[C@H]3CC[C@@]4(O)[C@@H]3O[C@@H](n3ccc5c(CO)ncnc53)[C@@H]4O)ccc2cc1Br` [Example 77, (2R,3R,3aS,6S,6aR)-6-[(2-amino-3-bromoquinolin-7-yl)oxy]-2-[4-(hydroxymethyl)-7H-pyrrolo[2,3-d]pyrimidin-7-yl]hexahydro-3aH-cyclopenta[b]furan-3,3a-diol] gave an EC50 of 243000 pM. Molecule `Nc1nc2cc(O[C@H]3CC[C@@]4(O)[C@@H]3O[C@@H](n3ccc5cncnc53)[C@@H]4O)ccc2cc1Br` [Example 85, (2R,3R,3aS,6S,6aR)-6-((2-amino-3-bromoquinolin-7-yl)oxy)-2-(7H-pyrrolo[2,3-d]pyrimidin-7-yl)hexahydro-3aH-cyclopenta[b]furan-3,3a-diol] has an EC50 of 246000 pM. `Cc1ncnc2c1ccn2[C@@H]1O[C@@H]2[C@@H](Oc3ccc4cc(F)c(N)nc4c3)CC[C@]2(O)[C@H]1O` [Example 86, (2R,3R,3aS,6S,6aR)-6-((2-amino-3-fluoroquinolin-7-yl)oxy)-2-(4-methyl-7H-pyrrolo[2,3-d]pyrimidin-7-yl)hexahydro-3aH-cyclopenta[b]furan-3,3a-diol] showed an EC50 of 63800 pM.
